Experimental data from ChEMBL document CHEMBL2074227, “Antiestrogens and steroid hormones: substrates of the human P-glycoprotein” (Biochem Pharmacol, 1994).

Each compound was assayed against ATP-dependent translocase ABCB1 (Homo sapiens, UniProt P08183) (assay: TP_TRANSPORTER: ATP hydrolysis in MDR1-expressing Sf9 cells).
Assay type: functional

ATP-dependent translocase ABCB1, sequence (P08183 whole entry): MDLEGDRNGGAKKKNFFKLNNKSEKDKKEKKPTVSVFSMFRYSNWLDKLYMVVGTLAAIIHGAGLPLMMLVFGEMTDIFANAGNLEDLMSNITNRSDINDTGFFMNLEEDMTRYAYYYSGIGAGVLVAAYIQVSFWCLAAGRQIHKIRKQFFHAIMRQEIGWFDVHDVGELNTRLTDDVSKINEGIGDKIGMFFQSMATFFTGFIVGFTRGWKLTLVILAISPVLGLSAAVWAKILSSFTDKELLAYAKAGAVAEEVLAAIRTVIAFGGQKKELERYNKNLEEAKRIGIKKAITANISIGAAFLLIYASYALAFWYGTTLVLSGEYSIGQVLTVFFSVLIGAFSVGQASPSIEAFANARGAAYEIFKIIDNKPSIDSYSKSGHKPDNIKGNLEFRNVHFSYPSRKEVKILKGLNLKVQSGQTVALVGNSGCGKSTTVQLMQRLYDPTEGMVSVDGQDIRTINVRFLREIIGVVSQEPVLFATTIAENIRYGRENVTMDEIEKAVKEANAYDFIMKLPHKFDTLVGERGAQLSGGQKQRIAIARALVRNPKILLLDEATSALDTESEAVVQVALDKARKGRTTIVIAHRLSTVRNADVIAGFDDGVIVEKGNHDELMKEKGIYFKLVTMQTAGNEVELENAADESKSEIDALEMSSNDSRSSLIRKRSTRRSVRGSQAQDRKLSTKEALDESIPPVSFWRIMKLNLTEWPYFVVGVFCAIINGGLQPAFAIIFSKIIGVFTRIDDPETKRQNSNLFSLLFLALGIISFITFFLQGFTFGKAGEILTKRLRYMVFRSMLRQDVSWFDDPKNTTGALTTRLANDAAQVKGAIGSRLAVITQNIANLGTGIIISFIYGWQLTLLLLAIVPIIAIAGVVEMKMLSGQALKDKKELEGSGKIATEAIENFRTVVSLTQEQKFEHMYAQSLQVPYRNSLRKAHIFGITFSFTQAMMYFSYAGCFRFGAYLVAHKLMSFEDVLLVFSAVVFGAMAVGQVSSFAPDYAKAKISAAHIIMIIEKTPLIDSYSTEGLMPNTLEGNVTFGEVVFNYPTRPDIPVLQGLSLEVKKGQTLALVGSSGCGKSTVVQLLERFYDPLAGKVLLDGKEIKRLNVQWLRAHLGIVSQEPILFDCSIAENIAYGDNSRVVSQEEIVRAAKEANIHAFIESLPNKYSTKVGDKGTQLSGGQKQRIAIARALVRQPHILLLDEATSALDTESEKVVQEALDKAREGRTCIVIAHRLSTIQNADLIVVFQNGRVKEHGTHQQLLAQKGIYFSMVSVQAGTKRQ

Row | SMILES | Activity
1 | CCC(=C(c1ccc(O)cc1)c1ccc(OCCN(C)C)cc1)c1ccccc1 | substrate [+]
2 | C[C@]12C[C@H](O)[C@H]3[C@@H](CCC4=CC(=O)CC[C@@]43C)[C@@H]1CC[C@@H]2C(=O)CO [CORTICOSTERONE] | substrate [+]
3 | CC/C(=C(/CC)c1ccc(O)cc1)c1ccc(O)cc1 [DIETHYLSTILBESTROL] | substrate [+]
4 | C[C@]12CC[C@@H]3c4ccc(O)cc4CC[C@H]3[C@@H]1CC[C@@H]2O [ESTRADIOL] | substrate [+]
5 | COc1ccc2c(c1)CCC(c1ccccc1)=C2c1ccc(OCCN2CCCC2)cc1 [NAFOXIDINE] | substrate [+]
6 | CN(C)CCOc1ccc(/C(=C(/CCCl)c2ccccc2)c2ccccc2)cc1 [TOREMIFENE] | substrate [+]

Other lines, results leading:

Row | Activity | SMILES
7 | substrate [+] | CCN(CC)CCOc1ccc(C(=C(Cl)c2ccccc2)c2ccccc2)cc1 [CLOMIPHENE]
8 | substrate [+] | CC/C(=C(\c1ccccc1)c1ccc(OCCN)cc1)c1ccccc1 [DESMETHYL TAMOXIFEN]
9 | substrate [+] | CC/C(=C(/c1ccc(OCCN(C)C)cc1)c1cccc(O)c1)c1ccccc1 [DROLOXIFENE]
